Data taken from paper PMC6009956, “Design, synthesis and biological activity of N^4-phenylsubstituted-7H-pyrrolo[2,3-d]pyrimidin-4-amines as dual inhibitors of aurora kinase A and epidermal growth factor receptor kinase” (Journal of Enzyme Inhibition and Medicinal Chemistry, 2017).
Like-named read-outs stand apart in the source and are kept apart here. Each block holds one compound with its values, some of them ahead of it.

Legend:
EGFR = EGFR (Homo sapiens, UniProt P00533); test: ADP-Glo kinase assay, EGFR; type: biochemical; set-up: purchased BPS Bioscience (assay run externally by the vendor)
aurora A kinase (AURKA) = target: T1, aurora A kinase (AURKA) (Homo sapiens, UniProt O14965); test: ADP-Glo kinase assay, Aurora A; type: biochemical
T1 construct: purchased BPS Bioscience (assay run externally by the vendor)
T1 sequence (O14965 1-403): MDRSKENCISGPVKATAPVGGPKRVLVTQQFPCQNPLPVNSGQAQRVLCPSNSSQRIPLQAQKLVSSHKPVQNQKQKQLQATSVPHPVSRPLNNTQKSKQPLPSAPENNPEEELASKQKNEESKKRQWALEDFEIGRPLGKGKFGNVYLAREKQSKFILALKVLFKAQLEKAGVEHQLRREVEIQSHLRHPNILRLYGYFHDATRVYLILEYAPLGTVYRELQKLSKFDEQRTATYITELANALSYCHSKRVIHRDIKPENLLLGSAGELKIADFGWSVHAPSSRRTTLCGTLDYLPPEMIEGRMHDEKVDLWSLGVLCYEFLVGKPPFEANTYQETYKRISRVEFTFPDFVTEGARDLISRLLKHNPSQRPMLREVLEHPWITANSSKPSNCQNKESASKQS

Sequence of EGFR (P00533 25-1210): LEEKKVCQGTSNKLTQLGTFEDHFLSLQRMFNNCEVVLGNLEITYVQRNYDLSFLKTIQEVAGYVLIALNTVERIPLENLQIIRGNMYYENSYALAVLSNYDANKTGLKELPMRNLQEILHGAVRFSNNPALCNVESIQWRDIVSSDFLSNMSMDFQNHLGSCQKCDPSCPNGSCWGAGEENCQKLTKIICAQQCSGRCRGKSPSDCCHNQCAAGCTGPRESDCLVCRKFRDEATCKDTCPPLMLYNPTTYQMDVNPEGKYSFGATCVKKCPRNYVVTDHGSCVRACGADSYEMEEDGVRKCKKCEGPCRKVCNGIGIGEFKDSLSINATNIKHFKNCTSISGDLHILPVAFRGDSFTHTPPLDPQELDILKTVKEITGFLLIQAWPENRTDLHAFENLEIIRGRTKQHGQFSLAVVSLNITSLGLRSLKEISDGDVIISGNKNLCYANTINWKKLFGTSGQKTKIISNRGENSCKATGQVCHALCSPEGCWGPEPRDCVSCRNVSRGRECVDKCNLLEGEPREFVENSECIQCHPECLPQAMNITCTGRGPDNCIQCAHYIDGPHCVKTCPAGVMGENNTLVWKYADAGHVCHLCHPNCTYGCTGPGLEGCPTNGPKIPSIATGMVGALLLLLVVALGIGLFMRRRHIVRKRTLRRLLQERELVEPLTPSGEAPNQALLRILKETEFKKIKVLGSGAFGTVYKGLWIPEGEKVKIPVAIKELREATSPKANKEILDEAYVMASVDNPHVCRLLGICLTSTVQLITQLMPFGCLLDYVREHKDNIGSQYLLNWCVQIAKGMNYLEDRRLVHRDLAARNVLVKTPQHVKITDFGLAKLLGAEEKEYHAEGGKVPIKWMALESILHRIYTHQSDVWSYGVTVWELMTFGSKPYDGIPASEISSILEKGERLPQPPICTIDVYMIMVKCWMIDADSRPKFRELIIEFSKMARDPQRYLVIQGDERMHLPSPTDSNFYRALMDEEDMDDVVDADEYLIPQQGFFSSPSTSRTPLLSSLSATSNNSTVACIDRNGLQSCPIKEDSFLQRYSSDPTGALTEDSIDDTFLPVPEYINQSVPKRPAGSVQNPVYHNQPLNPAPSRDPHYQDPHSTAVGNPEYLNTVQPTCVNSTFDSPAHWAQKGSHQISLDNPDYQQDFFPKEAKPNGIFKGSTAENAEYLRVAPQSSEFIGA

IC50 (EGFR; 10 µM ATP, triplicate, read-out: EGFR IC50 ± SD): 0.0849 ± 0.0159 µM | IC50 (EGFR; 10 µM ATP/0.2 mg/ml Poly-Glu-Tyr, read-out: EGFR IC50 (dose-response curve, supplement)): 0.0845 µM | EGFR % Activity Set1 (EGFR; Log[nM] 0): 102% | EGFR % Activity Set2 (EGFR; Log[nM] 0): 96% | EGFR % Activity Set3 (EGFR; Log[nM] 0): 97% | EGFR % Activity Set1 (EGFR; Log[nM] 1.0): 102% | EGFR % Activity Set2 (EGFR; Log[nM] 1.0): 97% | EGFR % Activity Set3 (EGFR; Log[nM] 1.0): 96% | EGFR % Activity Set1 (EGFR; Log[nM] 1.5): 65% | EGFR % Activity Set2 (EGFR; Log[nM] 1.5): 61% | EGFR % Activity Set3 (EGFR; Log[nM] 1.5): 64% | EGFR % Activity Set1 (EGFR; Log[nM] 2.0): 50% | EGFR % Activity Set2 (EGFR; Log[nM] 2.0): 45% | EGFR % Activity Set3 (EGFR; Log[nM] 2.0): 52% | EGFR % Activity Set1 (EGFR; Log[nM] 2.5): 19% | EGFR % Activity Set2 (EGFR; Log[nM] 2.5): 19% | EGFR % Activity Set3 (EGFR; Log[nM] 2.5): 22% | EGFR % Activity Set1 (EGFR; Log[nM] 3.0): 10% | EGFR % Activity Set2 (EGFR; Log[nM] 3.0): 10% | EGFR % Activity Set3 (EGFR; Log[nM] 3.0): 12% | EGFR % Activity Set1 (EGFR; Log[nM] 3.5): 4% | EGFR % Activity Set2 (EGFR; Log[nM] 3.5): 4% | EGFR % Activity Set3 (EGFR; Log[nM] 3.5): 4% | EGFR % Activity Set1 (EGFR; Log[nM] 4.0): 2% | EGFR % Activity Set2 (EGFR; Log[nM] 4.0): 2% | EGFR % Activity Set3 (EGFR; Log[nM] 4.0): 2% | EGFR % Activity Set1 (EGFR; Log[nM] 4.5): 1% | EGFR % Activity Set2 (EGFR; Log[nM] 4.5): 1% | EGFR % Activity Set3 (EGFR; Log[nM] 4.5): 1% | EGFR % Activity Set1 (EGFR; Log[nM] 5.0): 1% | EGFR % Activity Set2 (EGFR; Log[nM] 5.0): 1% | EGFR % Activity Set3 (EGFR; Log[nM] 5.0): 1% | IC50 (aurora A kinase (AURKA); 10 µM ATP, triplicate, read-out: AURKA IC50 ± SD): 5.15 ± 0.37 µM | IC50 (aurora A kinase (AURKA); 10 µM ATP/0.2 mg/ml Kemptide, read-out: Aurora A IC50 (dose-response curve, supplement)): 5.2 µM | Aurora A % Activity Set1 (aurora A kinase (AURKA); Log[nM] 0): 98% | Aurora A % Activity Set2 (aurora A kinase (AURKA); Log[nM] 0): 101% | Aurora A % Activity Set3 (aurora A kinase (AURKA); Log[nM] 0): 97% | Aurora A % Activity Set1 (aurora A kinase (AURKA); Log[nM] 1.0): 99% | Aurora A % Activity Set2 (aurora A kinase (AURKA); Log[nM] 1.0): 98% | Aurora A % Activity Set3 (aurora A kinase (AURKA); Log[nM] 1.0): 100% | Aurora A % Activity Set1 (aurora A kinase (AURKA); Log[nM] 1.5): 104% | Aurora A % Activity Set2 (aurora A kinase (AURKA); Log[nM] 1.5): 108% | Aurora A % Activity Set3 (aurora A kinase (AURKA); Log[nM] 1.5): 102% | Aurora A % Activity Set1 (aurora A kinase (AURKA); Log[nM] 2.0): 105% | Aurora A % Activity Set2 (aurora A kinase (AURKA); Log[nM] 2.0): 107% | Aurora A % Activity Set3 (aurora A kinase (AURKA); Log[nM] 2.0): 104% | Aurora A % Activity Set1 (aurora A kinase (AURKA); Log[nM] 2.5): 103% | Aurora A % Activity Set2 (aurora A kinase (AURKA); Log[nM] 2.5): 99% | Aurora A % Activity Set3 (aurora A kinase (AURKA); Log[nM] 2.5): 101% | Aurora A % Activity Set1 (aurora A kinase (AURKA); Log[nM] 3.0): 88% | Aurora A % Activity Set2 (aurora A kinase (AURKA); Log[nM] 3.0): 93% | Aurora A % Activity Set3 (aurora A kinase (AURKA); Log[nM] 3.0): 86% | Aurora A % Activity Set1 (aurora A kinase (AURKA); Log[nM] 3.5): 66% | Aurora A % Activity Set2 (aurora A kinase (AURKA); Log[nM] 3.5): 69% | Aurora A % Activity Set3 (aurora A kinase (AURKA); Log[nM] 3.5): 68% | Aurora A % Activity Set1 (aurora A kinase (AURKA); Log[nM] 4.0): 25% | Aurora A % Activity Set2 (aurora A kinase (AURKA); Log[nM] 4.0): 28% | Aurora A % Activity Set3 (aurora A kinase (AURKA); Log[nM] 4.0): 25% | Aurora A % Activity Set1 (aurora A kinase (AURKA); Log[nM] 4.5): 11% | Aurora A % Activity Set2 (aurora A kinase (AURKA); Log[nM] 4.5): 11% | Aurora A % Activity Set3 (aurora A kinase (AURKA); Log[nM] 4.5): 11% | Aurora A % Activity Set1 (aurora A kinase (AURKA); Log[nM] 5.0): 9% | Aurora A % Activity Set2 (aurora A kinase (AURKA); Log[nM] 5.0): 10% | Aurora A % Activity Set3 (aurora A kinase (AURKA); Log[nM] 5.0): 9%
Structure (SMILES): Clc1ccc(Nc2ncnc3[nH]ccc23)cc1 [Compound 4, N^4-(4-chlorophenyl)-7H-pyrrolo[2,3-d]pyrimidine-4-amine]

Structure (SMILES): CN[C@@H]1C[C@H]2O[C@@](C)([C@@H]1OC)n1c3ccccc3c3c4c(c5c6ccccc6n2c5c31)C(=O)NC4 [Staurosporine, staurosporine, reference compound]
Aurora A % Activity Set1 (aurora A kinase (AURKA); Log[nM] 0): 109% | Aurora A % Activity Set2 (aurora A kinase (AURKA); Log[nM] 0): 103% | Aurora A % Activity Set3 (aurora A kinase (AURKA); Log[nM] 0): 109% | Aurora A % Activity Set1 (aurora A kinase (AURKA); Log[nM] 1.0): 102% | Aurora A % Activity Set2 (aurora A kinase (AURKA); Log[nM] 1.0): 101% | Aurora A % Activity Set3 (aurora A kinase (AURKA); Log[nM] 1.0): 102% | Aurora A % Activity Set1 (aurora A kinase (AURKA); Log[nM] 1.5): 73% | Aurora A % Activity Set2 (aurora A kinase (AURKA); Log[nM] 1.5): 69% | Aurora A % Activity Set3 (aurora A kinase (AURKA); Log[nM] 1.5): 85% | Aurora A % Activity Set2 (aurora A kinase (AURKA); Log[nM] 2.0): 9% | Aurora A % Activity Set1 (aurora A kinase (AURKA); Log[nM] -0.5): 98% | Aurora A % Activity Set2 (aurora A kinase (AURKA); Log[nM] -0.5): 100% | Aurora A % Activity Set3 (aurora A kinase (AURKA); Log[nM] -0.5): 102% | Aurora A % Activity Set1 (aurora A kinase (AURKA); Log[nM] -1.0): 100% | Aurora A % Activity Set2 (aurora A kinase (AURKA); Log[nM] -1.0): 93% | Aurora A % Activity Set3 (aurora A kinase (AURKA); Log[nM] -1.0): 102%
